One data set concerns HT-29. As to the kind of experiment: Antiproliferative activity against human HT-29 cells assessed as inhibition of cell growth incubated for 72 hrs by MTS assay. Format: functional, cell-based. Particulars: HT-29, 72 h. For orientation: Tetrazolium assays rely on reduction of a dye to a coloured formazan, in cell work by metabolically active cells.
Another data set has as its system CAPAN-1. In words: Antiproliferative activity against human CAPAN-1 cells assessed as inhibition of cell growth incubated for 72 hrs by MTS assay. The format is functional, cell-based. Particulars: CAPAN-1, 72 h.
The subject of data set [1] is Granta-519. In words: Induction of apoptosis in human Granta-519 cells assessed as viable cells at 2000 nM incubated for 48 hrs by Annexin-V-FITC/propidium iodide staining based flow cytometry (reference value: 92.7 %). Format: functional. The settings on record: read-out: Activity. For orientation: A flow cytometer gives signals particle by particle.
Data set [2] relates to Granta-519. As to the kind of experiment: Induction of cell cycle arrest in human Granta-519 cells assessed as accumulation of cells at S phase at 2000 nM incubated for 24 hrs by propidium iodide staining based flow cytometry (reference value: 44.81 %). Format: functional.
The subject of data set [3] is Granta-519. As to the kind of experiment: Antiproliferative activity against human Granta-519 cells assessed as inhibition of cell growth incubated for 72 hrs by MTS assay. Format: functional, cell-based. Particulars: Granta-519, 72 h.
A short description of data set [4]: Half life in BALB/c mouse at 75 mg/kg,po measured upto 24 hrs by LC-MS/MS analysis. Particulars: in vivo. The format is ADME, organism-based.
Data set [5] is described as follows: Brain to plasma ratio in ICR mouse at 50 mg/kg,po measured upto 24 hrs by LC-MS/MS analysis. Format: ADME, organism-based.
In data set [6] the test system is Granta-519. As to the kind of experiment: Induction of apoptosis in human Granta-519 cells assessed as early apoptotic cells at 2000 nM incubated for 48 hrs by Annexin-V-FITC/propidium iodide staining based flow cytometry (reference value: 3.75 %). The format is functional.
Data set [7] can be described thus: AUCinfinity in BALB/c mouse at 75 mg/kg,po measured upto 24 hrs by LC-MS/MS analysis. The format is ADME, organism-based. Particulars: in vivo.
Data set [8] deals with Granta-519. As to the kind of experiment: Induction of apoptosis in human Granta-519 cells assessed as necrotic cells at 2000 nM incubated for 48 hrs by Annexin-V-FITC/propidium iodide staining based flow cytometry (reference value: 0.429 %). The format is functional.
The test system of another data set is NCI-H446. As to the kind of experiment: Antiproliferative activity against human NCI-H446 cells assessed as inhibition of cell growth incubated for 72 hrs by MTS assay. Format: functional, cell-based. Particulars: NCI-H446, 72 h.
Data set [9] is described as follows: Cmax in BALB/c mouse at 75 mg/kg,po measured upto 24 hrs by LC-MS/MS analysis. Format: ADME, organism-based. The settings on record: in vivo.
In the next data set the test system is A2780. In words: Antiproliferative activity against human A2780 cells assessed as inhibition of cell growth incubated for 72 hrs by MTS assay. Format: functional, cell-based. Particulars: A2780, 72 h.
For data set [10], the system named is Granta-519. In words: Induction of apoptosis in human Granta-519 cells assessed as late apoptotic cells at 2000 nM incubated for 48 hrs by Annexin-V-FITC/propidium iodide staining based flow cytometry (reference value: 3.07 %). The format is functional.
The subject of data set [11] is Granta-519. As to the kind of experiment: Induction of cell cycle arrest in human Granta-519 cells assessed as accumulation of cells at G1 phase at 2000 nM incubated for 24 hrs by propidium iodide staining based flow cytometry (reference value: 45.83 %). Format: functional.
The next data set relates to SUD4. In words: Antiproliferative activity against human SU-DHL-4 cells assessed as inhibition of cell growth incubated for 72 hrs by MTS assay. The format is functional, cell-based. The settings on record: SU-DHL-4, 72 h.
The next data set relates to OCI-Ly10. In words: Antiproliferative activity against human OCI-Ly10 cells assessed as inhibition of cell growth incubated for 72 hrs by MTS assay. Format: functional, cell-based. Particulars: OCI-Ly10, 72 h.
Another data set has as its system HCT-116. As to the kind of experiment: Antiproliferative activity against human HCT-116 cells assessed as inhibition of cell growth incubated for 72 hrs by MTS assay. The settings on record: HCT-116, 72 h. The format is functional, cell-based.
A further data set relates to LoVo. As to the kind of experiment: Antiproliferative activity against human LoVo cells assessed as inhibition of cell growth incubated for 72 hrs by MTS assay. Format: functional, cell-based.
The nature of data set [12]: Tmax in BALB/c mouse at 75 mg/kg,po measured upto 24 hrs by LC-MS/MS analysis. Format: ADME, organism-based. Particulars: in vivo.
A further data set has as its system PC-3. In words: Antiproliferative activity against human PC-3 cells assessed as inhibition of cell growth incubated for 72 hrs by MTS assay. Format: functional, cell-based. The settings on record: PC-3, 72 h.
Another data set has as its system DLD-1. As to the kind of experiment: Antiproliferative activity against human DLD-1 cells assessed as inhibition of cell growth incubated for 72 hrs by MTS assay. The settings on record: DLD-1, 72 h. Format: functional, cell-based.

The IC50 is the concentration that gives 50% inhibition. The half-life is how long it takes for the measured level to halve. Low readings indicate fast loss, high ones slow loss. Broadly, the AUC(0-inf) is the area under the concentration-time curve extrapolated to infinity. Higher therefore signals high exposure. The term Cmax denotes the peak of the concentration-time curve. By Tmax is commonly meant the time from dosing to the highest level.

On to `C[C@@H]1COCCN1c1cc(C2([S@](C)(=N)=O)CC2)nc(-c2cc[nH]c3nccc2-3)n1` [CERALASERTIB], for which the IC50 with HT-29 worked out at 2590 nM; with CAPAN-1, 5540 nM; in the data set with Granta-519 [3], 550 nM; with NCI-H446 it was 1960 nM; in the data set with A2780 it was 620 nM; in the data set on SUD4 it was 2260 nM. The 50% inhibitory concentration (IC50) with OCI-Ly10 amounted to 520 nM; in the data set on HCT-116 it was 1120 nM; with LoVo, 1140 nM; in the data set with PC-3 it was 11300 nM; in the data set on DLD-1, 5280 nM. For the same compound, the viability at 2 µM in the data set on Granta-519 [1] worked out at 78%. Also, the Activity was determined as 67.69% in the data set with Granta-519 [2]; 8.66% in the data set with Granta-519 [6]; 3.07% in the data set on Granta-519 [8]; 10.3% in the data set on Granta-519 [10]; 30.16% in the data set with Granta-519 [11]. Also, the half-life in data set [4] was 1.93 h. Moreover, the BPR in data set [5] is listed as 6.6%. The compound also gave an AUC(0-inf) in [7] of 41600 ng·h/mL. For the same compound, the peak level in data set [9] (Cmax) was 12000 ng/mL. In addition, the Tmax in data set [12] was 0.25 h.

(Values after ChEMBL document CHEMBL5523766 (J Med Chem, 2024).)
